Entries after “also recorded” stand apart in the source; their conditions may differ.
What was measured:
[1] = Evaluation of bile stones dissolution capacity; details: 0.5% UDCA, 37° C. with constant movement, 120 hours, bile stone weights measured every 24 hours; compared with water, EDTA, MTBE, Paclitaxel, Gemcitabine
Description: Pigment bile stones were stored in water, 1% ethylenediaminetetraacetic acid (EDTA), 0.5% ursodeoxycholic acid (UDCA), 99% methyl tert-butyl ether (MTBE), 20 μg/ml of Paclitaxel, and 200 uM of Gemcitabine, observed for 120 hours at 37° C. with constant movement, and the weights of the bile stones were measured every 24 hours to evaluate bile stone dissolution capacity (FIG. 1).

[2] = tested on: human chemically derived hepatic progenitors (hCdHs); experiment: Differentiation of hCdHs into cholangiocytes (hCdH-Chols) on ABD; format: cell-based
Text: In manufacturing a 3D artificial bile duct disclosed in the present specification, cholangiocytes (hCdH-Chols) derived from human chemically derived hepatic progenitors (hCdHs) were used. Because primary cholangiocytes from humans and other mammals are difficult to isolate and propagate in vitro, human chemically derived hepatic progenitors (hCdHs) were utilized for biliary epithelium modeling. To generate hCdHs, human adult hepatocytes isolated from healthy donor livers were directly reprogrammed into bi-potent progenitors through combinatorial treatment with two small molecules, A83-01 and CHIR99021, in the presence of a hepatocyte growth factor (HGF) as described in a recent publication (Y. Kim, K. Kang, S. B. Lee, D. Seo, S. Yoon, […]. Jang, Y. K. Jung, K. G. Lee, V. M. Factor, J. Jeong, D. Choi, J Hepatol 2019, 70, 97.). A cholangiocyte differentiation protocol was applied when hCdHs reached a passage 3. The hCdHs cultured for 14 days in a cholangiocyte differentiation medium comprising Na-taurocholate (100 uM) and CHIR99021 ([…]) in the presence of a HGF for hCdH-Chols differentiation. The ABDs comprising the inner fibrous layer electrospun using 21 G and 27 G needles by the method of Example 2 were treated with UDCA, and after 50 days, whether differentiation into cholangiocytes using human chemically derived hepatic progenitors (hCdHs) is promoted was evaluated. As a control group, a 3D ABD untreated with UDCA was compared.

C[C@H](CCC(=O)O)[C@H]1CC[C@H]2[C@@H]3[C@@H](O)C[C@@H]4C[C@H](O)CC[C@]4(C)[C@H]3CC[C@]12C [UDCA, ursodeoxycholic acid]
bile stone dissolution capacity [1]: dissolved the most; also recorded: significantly increased compared to other solvents | differentiation of hepatic progenitors (hCdHs) into cholangiocytes (hCdH-Chols) ([2]; ABD treated with UDCA, after 50 days, vs 3D ABD untreated with UDCA): promoted differentiation | attachment of cells to the bile ducts by nanofibers of the inner fibrous layer ([2]; UDCA present in inner fibrous layer of ABD vs 3D ABD untreated with UDCA): better attached cells to the bile ducts | expression of cholangiocyte markers in hCdH-Chols ([2]; after a period of differentiation): high levels
